For assay [1], the target named is class III PI3K (Mus musculus, UniProt Q6PF93). The assay is described as follows: Inhibition of autophagosome formation in EV-treated BMDCs, IL-10.
Assay [2] deals with colonic lamina propria (cLP) cells. The assay is described as follows: A2a blockade in antibiotic-pretreated mice given live or killed ASF519, flow cytometry of colonic lamina propria cells. The format is in vivo, mouse. As to conditions: daily i.p. injection. On the technique in general: In flow cytometry, cells or beads pass a laser one at a time.
Assay [3] relates to fusion of autophagosomes with lysosomes. The assay is described as follows: Inhibition of autophagosome-lysosome fusion in EV-treated BMDCs, IL-10.

Results on three compounds are retold here after patent US20240358773A1, “Parabacteroides Goldsteinii to Treat or Prevent Inflammatory and AutoImmune Diseases” (Joslin Diabetes Center, priority 2023, published 2024).

Each structure is given as a SMILES string.

Sequence of class III PI3K (Q6PF93 whole entry): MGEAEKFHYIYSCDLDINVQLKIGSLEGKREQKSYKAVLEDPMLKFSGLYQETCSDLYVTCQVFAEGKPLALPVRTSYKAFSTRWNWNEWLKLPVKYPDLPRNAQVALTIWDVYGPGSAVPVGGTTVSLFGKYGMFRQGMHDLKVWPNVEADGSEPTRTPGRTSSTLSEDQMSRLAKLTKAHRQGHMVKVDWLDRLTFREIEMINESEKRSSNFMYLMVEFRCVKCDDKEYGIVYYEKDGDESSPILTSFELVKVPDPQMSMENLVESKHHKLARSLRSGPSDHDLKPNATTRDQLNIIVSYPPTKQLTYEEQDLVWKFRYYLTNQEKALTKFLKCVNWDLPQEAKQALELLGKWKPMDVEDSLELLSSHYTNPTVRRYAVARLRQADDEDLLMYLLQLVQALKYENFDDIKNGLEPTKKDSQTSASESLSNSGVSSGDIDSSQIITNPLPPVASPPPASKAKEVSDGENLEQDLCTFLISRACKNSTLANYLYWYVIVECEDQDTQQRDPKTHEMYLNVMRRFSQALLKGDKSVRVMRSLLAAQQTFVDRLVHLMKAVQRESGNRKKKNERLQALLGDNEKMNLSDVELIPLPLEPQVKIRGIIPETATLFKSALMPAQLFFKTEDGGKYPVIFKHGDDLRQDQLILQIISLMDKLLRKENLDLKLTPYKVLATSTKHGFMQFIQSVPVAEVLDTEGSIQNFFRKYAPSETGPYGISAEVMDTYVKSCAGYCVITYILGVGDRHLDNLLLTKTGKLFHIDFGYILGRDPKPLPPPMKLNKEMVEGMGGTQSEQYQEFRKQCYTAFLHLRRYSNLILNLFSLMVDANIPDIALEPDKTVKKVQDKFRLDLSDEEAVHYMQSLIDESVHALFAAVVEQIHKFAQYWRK
Sequence of class III PI3K (Q8VD65 whole entry partner): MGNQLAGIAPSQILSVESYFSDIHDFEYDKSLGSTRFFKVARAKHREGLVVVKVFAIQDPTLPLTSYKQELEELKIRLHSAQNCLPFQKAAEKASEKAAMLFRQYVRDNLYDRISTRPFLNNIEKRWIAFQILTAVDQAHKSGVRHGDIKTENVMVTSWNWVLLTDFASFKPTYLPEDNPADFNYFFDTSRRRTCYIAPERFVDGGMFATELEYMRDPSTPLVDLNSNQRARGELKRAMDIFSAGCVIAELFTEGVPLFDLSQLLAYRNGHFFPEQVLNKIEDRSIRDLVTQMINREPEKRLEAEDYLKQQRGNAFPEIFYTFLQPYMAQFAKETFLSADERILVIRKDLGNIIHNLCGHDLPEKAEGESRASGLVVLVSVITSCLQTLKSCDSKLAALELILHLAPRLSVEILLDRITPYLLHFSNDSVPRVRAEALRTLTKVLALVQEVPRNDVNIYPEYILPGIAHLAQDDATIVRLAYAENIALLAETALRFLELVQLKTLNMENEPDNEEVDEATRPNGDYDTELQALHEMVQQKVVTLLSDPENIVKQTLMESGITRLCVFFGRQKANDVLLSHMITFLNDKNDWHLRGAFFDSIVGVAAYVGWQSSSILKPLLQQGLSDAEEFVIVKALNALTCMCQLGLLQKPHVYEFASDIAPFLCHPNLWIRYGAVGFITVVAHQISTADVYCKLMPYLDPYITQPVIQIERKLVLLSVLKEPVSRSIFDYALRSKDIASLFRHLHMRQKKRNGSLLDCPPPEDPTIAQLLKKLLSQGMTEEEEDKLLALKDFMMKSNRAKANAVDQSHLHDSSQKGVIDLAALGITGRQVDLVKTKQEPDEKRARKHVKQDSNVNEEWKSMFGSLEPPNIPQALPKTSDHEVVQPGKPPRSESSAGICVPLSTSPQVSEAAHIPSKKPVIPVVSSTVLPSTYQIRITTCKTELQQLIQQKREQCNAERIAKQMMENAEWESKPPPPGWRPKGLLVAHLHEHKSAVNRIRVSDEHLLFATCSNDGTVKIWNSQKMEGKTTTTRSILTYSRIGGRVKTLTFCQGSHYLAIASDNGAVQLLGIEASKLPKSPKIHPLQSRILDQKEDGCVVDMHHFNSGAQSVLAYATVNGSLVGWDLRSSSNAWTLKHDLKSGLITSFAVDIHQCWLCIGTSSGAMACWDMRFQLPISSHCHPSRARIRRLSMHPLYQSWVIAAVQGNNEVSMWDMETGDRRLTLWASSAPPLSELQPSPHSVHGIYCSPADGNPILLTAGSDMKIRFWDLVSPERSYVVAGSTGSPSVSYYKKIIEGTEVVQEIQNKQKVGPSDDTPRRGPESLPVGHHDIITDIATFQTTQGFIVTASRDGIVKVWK
Sequence of class III PI3K (O88597 whole entry partner): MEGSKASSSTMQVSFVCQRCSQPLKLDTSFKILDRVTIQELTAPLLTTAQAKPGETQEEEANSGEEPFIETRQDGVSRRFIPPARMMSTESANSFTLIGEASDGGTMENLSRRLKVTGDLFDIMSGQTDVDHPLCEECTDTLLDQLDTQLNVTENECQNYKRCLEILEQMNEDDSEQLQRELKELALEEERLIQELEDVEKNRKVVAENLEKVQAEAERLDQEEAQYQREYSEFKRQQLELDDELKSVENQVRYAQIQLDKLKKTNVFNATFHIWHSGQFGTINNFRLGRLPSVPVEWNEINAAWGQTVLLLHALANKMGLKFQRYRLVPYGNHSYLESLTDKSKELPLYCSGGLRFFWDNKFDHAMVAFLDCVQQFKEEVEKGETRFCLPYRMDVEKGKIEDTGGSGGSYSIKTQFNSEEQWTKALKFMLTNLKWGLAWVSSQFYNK
Sequence of class III PI3K (Q8CDJ3 whole entry partner): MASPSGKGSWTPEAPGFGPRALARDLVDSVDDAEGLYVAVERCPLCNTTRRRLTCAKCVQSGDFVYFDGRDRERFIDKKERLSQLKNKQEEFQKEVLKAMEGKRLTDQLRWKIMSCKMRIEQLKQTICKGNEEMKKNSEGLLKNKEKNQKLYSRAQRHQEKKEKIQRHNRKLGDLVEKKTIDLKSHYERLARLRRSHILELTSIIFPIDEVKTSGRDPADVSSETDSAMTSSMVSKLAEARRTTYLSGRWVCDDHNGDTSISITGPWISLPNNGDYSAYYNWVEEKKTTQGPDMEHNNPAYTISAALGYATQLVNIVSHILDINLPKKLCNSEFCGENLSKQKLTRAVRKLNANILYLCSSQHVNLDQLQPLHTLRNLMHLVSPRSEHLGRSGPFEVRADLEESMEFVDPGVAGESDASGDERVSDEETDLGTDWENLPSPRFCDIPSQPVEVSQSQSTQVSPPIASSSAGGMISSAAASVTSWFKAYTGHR

Regarding `Cn1cnc(N)c2ncnc1-2` [3-methyladenine], the “effect on IL-10 induction of EV-treated BMDCs” value in assay [1] is “efficiently blocked IL-10 induction”. `Nc1nc(NCCc2ccc(O)cc2)nc2nc(-c3ccco3)nn12` [ZM241385]: in assay [2], the “effect of A2a antagonist on ASF519-induced IL-10 producing DCs” value is on record as “significantly decreased”; the “effect of A2a blockage on ASF519-decreased B cells and CD11b+ CD45+ cells” value was “restored”. `CCN(CCO)CCCC(C)Nc1ccnc2cc(Cl)ccc12` (stereo not shown) [hydroxychloroquine]: the “effect on IL-10 induction of EV-treated BMDCs” value in assay [3] is “efficiently blocked IL-10 induction”.
